A short description of this data set: GHS categories as the set defines them, by LD50: 1 up to 5, 2 up to 50, 3 up to 300, 4 up to 2000, 5 above 2000 mg/kg. To be noted: rat; in vivo; po.

Molecules are shown by their SMILES. Where a SMILES comes first, the peptide text is derived from it.

This note sets out measurements from the CATMoS acute toxicity set (Mansouri et al. 2021).

Compound `CO[C@H]1C=CO[C@@]2(C)Oc3c(C)c(O)c4c(O)c(c(/C=N/N5CCN(C6CCCC6)CC5)c(O)c4c3C2=O)NC(=O)C(C)=CC=C[C@H](C)[C@H](O)[C@@H](C)[C@@H](O)[C@@H](C)[C@H](OC(C)=O)[C@@H]1C` had a GHS category of 5.

Take `CC(C)=CCN(CC=C(C)C)CCC(CCN(CC=C(C)C)CC=C(C)C)(C(N)=O)c1cccc2ccccc12`: the GHS category is on record as 4.

Turning to `O=C1C=C2C=C[C@@H]3C[C@@]2(O1)[C@H]1CCCCN31`, the GHS category was 4.

Compound `CCN(Cc1cccc(S(=O)(=O)O)c1)c1ccc(C(=C2C=CC(=[N+](CC)Cc3cccc(S(=O)(=O)[O-])c3)C=C2)c2ccc(S(=O)(=O)O)cc2)cc1` had a GHS category of 5.

Regarding `Cc1cccc2ncc(C(=O)NC3CCCCC3)c(=O)n12`, the GHS category is on record as 3.

For the compound `CC(C)(C)c1cc(Cc2cc(C(C)(C)C)c(O)c(C(C)(C)C)c2)cc(C(C)(C)C)c1O`, the GHS category is 5.

`Clc1ccc(Cl)nn1` showed a GHS category of 3.

The compound `O=P(Oc1ccccc1)(Oc1ccccc1)Oc1ccccc1-c1ccccc1` came in with a GHS category of 5.

`CC1(C)[C@H](C(=O)O[C@H](C#N)c2cccc(Oc3ccccc3)c2)[C@@H]1/C=C\C(=O)OC(C(F)(F)F)C(F)(F)F`: the GHS category was found to be 5.

Regarding `CCOc1c(OC)cccc1-c1nc(=O)c2cc(C(=O)O)ccc2[nH]1`, the GHS category is reported as 4.

Take `COC(=O)Nc1nc2cc(Sc3ccccc3)ccc2[nH]1`: the GHS category is 5.

`CCC=CCC=O` registered a GHS category of 5.

Turning to `CCCCCCCCCCCCCC[Si](C)(O[Si](C)(C)C)O[Si](C)(C)C`, the GHS category came to 5.

Turning to `CC1N=C(c2ccccc2Cl)c2c(ccc(NC(=O)NCCO)c2Cl)N(C)C1=O` (centres undefined), the GHS category is given as 5.

In turn, `CC1CC(C)(C)OC(Cn2cncn2)(c2cc3ccccc3o2)O1` (centres undefined) showed a GHS category of 4.

For the compound `CCCC(=O)OC`, the GHS category came to 5.

With `CCCOC(=O)c1ccc(O)cc1`, the GHS category came out at 5.

For `C=CC(=O)OCCCCOc1ccc(C(=O)Oc2ccc(OC(=O)c3ccc(OCCCCOC(=O)C=C)cc3)c(C)c2)cc1`, the GHS category is given as 5.

Take `CN1C(=O)COc2cc(C(=O)C=Cc3ccc(Cl)cc3)ccc21`: the GHS category was determined as 5.

As for `CN(C)Cn1c(=O)oc2ccc(Cl)cc21`, the GHS category was determined as 4.

As to `CCCC1O[C@@H]2C[C@H]3[C@@H]4CCC5=CC(=O)C=C[C@]5(C)[C@H]4[C@@H](O)C[C@]3(C)[C@]2(C(=O)CO)O1` (some centres undefined), the GHS category is listed as 5.

In turn, `CCC(=O)O[C@]1(C(=O)SCF)[C@H](C)C[C@H]2C3C[C@H](F)C4=CC(=O)C=C[C@]4(C)[C@@]3(F)[C@@H](O)C[C@@]21C` (some centres undefined) gave a GHS category of 5.

On to `CC1COCc2cc3c(cc21)C(C)(C)C(C)C3(C)C` (centres undefined), for which the GHS category is 5.

In the case of `O=C1c2ccccc2C(c2ccc(O)cc2)(c2ccc(O)cc2)N1c1ccccc1`, the GHS category worked out at 5.

For `COc1ccccc1C=NNC(N)=S`, the GHS category is on record as 5.

Compound `O=c1c2ccccc2[nH]c2cc3c(=O)c4ccccc4[nH]c3cc12` displayed a GHS category of 5.

`COC(=O)[C@H](Cc1ccccc1)NC(=O)[C@@H](N)CC(=O)O` (H-Asp-Phe-OMe) had a GHS category of 5.

`OC[C@H]1O[C@@H](n2cnc3c(NC[C@H](O)COc4cccc5ccccc45)ncnc32)[C@H](O)[C@@H]1O`: the GHS category worked out at 4.

For the compound `CN1C(=O)COc2cc(C(=O)C=Cc3ccccc3)ccc21`, the GHS category stood at 5.

As for `Nc1cc(C(=O)O)ccc1Cl`, the GHS category is listed as 5.

Compound `Fc1ccc(Oc2ccnc3cc(Cl)cc(Cl)c23)cc1` had a GHS category of 5.

`FC(F)(Cl)C(F)(Cl)C(F)(Cl)C(F)(F)Cl` (centres undefined) gave a GHS category of 5.

With `CCCCCCCCCCCC(=O)OOC(=O)CCCCCCCCCCC`, the GHS category stood at 5.

`Cc1cccc2ncc(C(=O)NC3CCCCCC3)c(=O)n12` yielded a GHS category of 3.

On to `C=C(C)C(=O)OCCOC(=O)Oc1ccc(C(C)(C)c2ccc(OC(=O)OCCOC(=O)C(=C)C)cc2)cc1`, for which the GHS category amounted to 5.

On to `CC(C)(C)c1ccc(O)c(C(C)(C)C)c1`, for which the GHS category turned out to be 5.

Regarding `CC(C)(C)c1cc(CCC(=O)OCC(COC(=O)CCc2cc(C(C)(C)C)c(O)c(C(C)(C)C)c2)(COC(=O)CCc2cc(C(C)(C)C)c(O)c(C(C)(C)C)c2)COC(=O)CCc2cc(C(C)(C)C)c(O)c(C(C)(C)C)c2)cc(C(C)(C)C)c1O`, the GHS category was 5.

`CCCC1OC(Cn2cncn2)(c2cc3ccccc3o2)OCC1CC` (centres undefined) registered a GHS category of 4.

As to `CNC(=O)C(=NNc1ccc([N+](=O)[O-])cc1)C(C)=O`, the GHS category amounted to 5.

As to `CCOC(=O)C(C)OC(=O)c1cc(Oc2ccc(C(F)(F)F)cc2Cl)ccc1[N+](=O)[O-]` (centres undefined), the GHS category amounted to 5.

`CC(C)OC(=O)c1cc(Cl)ccc1OC(N)=O`: the GHS category is recorded as 5.

Compound `CC1OC(OC2CCC(OC3C(O)CC(c4ccc5c(c4O)C(=O)C4=C(C5=O)C5(O)C(=O)CC(C)(OC6CCC(OC7C=CC(=O)C(C)O7)C(C)O6)CC5(O)C=C4)OC3C)OC2C)C=CC1=O` (centres undefined) showed a GHS category of 4.

`Cc1ncoc1C(N)=O`: the GHS category came out at 5.

On to `CCCCCCCCCCCCOC(=O)CCSCCC(=O)OCCCCCCCCCCCC`, for which the GHS category amounted to 5.

With `O=S(=O)(O)c1cccc(N=Nc2ccc(N=Nc3ccc(Nc4ccccc4)c4c(S(=O)(=O)O)cccc34)c3ccccc23)c1`, the GHS category was found to be 5.

Consider `CCOC1(c2ccco2)CCN(CCc2ccccc2)CC1C` (centres undefined), for which the GHS category is 2.

On to `CC(C)(C)C1CCC(OC(=O)Cl)CC1` (centres undefined), for which the GHS category is listed as 5.

Take `COc1ccc(C(=O)CC(=O)c2ccc(C(C)(C)C)cc2)cc1`: the GHS category worked out at 5.

`OC1(c2cccs2)c2ccccc2C2=NCCN21` (centres undefined) registered a GHS category of 4.

As to `CCCCNC(=O)c1cnc2cccc(C)n2c1=O`, the GHS category was 3.

In turn, `O=C1CCCCCN1C(=O)c1cccc(C(=O)N2CCCCCC2=O)c1` registered a GHS category of 5.

Take `CN1C2=CC(=O)C(=NNC(N)=O)C=C2CC1S(=O)(=O)O` (centres undefined): the GHS category amounted to 5.

`CCOC(=O)C(=O)Nc1cc(SC)nc(C)n1`: the GHS category came out at 4.

Compound `O=S(=O)(O)OC1C(OS(=O)(=O)O)C(OS(=O)(=O)O)C(OS(=O)(=O)O)C(OS(=O)(=O)O)C1OS(=O)(=O)O` (centres undefined) registered a GHS category of 5.

`CCCCC(CC)C(c1ccc(O)cc1)c1ccc(O)cc1` (centres undefined) returned a GHS category of 4.

In turn, `CCCCC(O)CCO` (centres undefined) displayed a GHS category of 5.

In the case of `CCOC(=O)C1OC1C(=O)NC(CC(C)C)C(=O)NCCC(C)C` (centres undefined), the GHS category is 5.

Compound `O=C(O)CCCCCNc1nc(NCCCCCC(=O)O)nc(NCCCCCC(=O)O)n1` returned a GHS category of 5.

In turn, `CC1CC2(CC(C)OC2=O)C(=O)O1` (centres undefined) registered a GHS category of 5.

Take `NC(=S)NS(=O)(=O)c1ccc(N)cc1`: the GHS category is listed as 5.

`CC(C)(c1ccccc1)c1cc(-n2nc3ccccc3n2)c(O)c(C(C)(C)c2ccccc2)c1` came in with a GHS category of 5.

In turn, `Cc1cccc2ncc(C(=O)N3CCCC3)c(=O)n12` came in with a GHS category of 3.

The compound `Cc1cccc2ncc(C(=O)NC34CC5CC(CC(C5)C3)C4)c(=O)n12` gave a GHS category of 3.

As to `Cc1ccc(C(=O)NS(=O)(=O)c2ccc(N)cc2)cc1C`, the GHS category was 5.

Regarding `COc1ccc(N)cc1N`, the GHS category was determined as 5.

In turn, `CCCCCCC(O)CCO` (centres undefined) displayed a GHS category of 5.

For `COCC1CN(c2ccc(OCc3cccc(C#N)c3)cc2)C(=O)O1` (centres undefined), the GHS category came out at 5.

`c1ccc(C2c3ccccc3CCN2c2ccccc2)cc1` (centres undefined): the GHS category is recorded as 4.

Compound `Cc1cc(Cl)ccc1-n1c(C)nc2cccc(Cl)c2c1=O` had a GHS category of 5.

`CO[C@]12CC[C@@]3(C[C@@H]1[C@](C)(O)C(C)(C)C)[C@H]1Cc4ccc(O)c5c4[C@@]3(CCN1CC1CC1)[C@H]2O5` gave a GHS category of 4.

Compound `CCOC(=O)CCCCC(=O)OCC` yielded a GHS category of 4.

Compound `CCCC1CCCC(=O)O1` (centres undefined) yielded a GHS category of 5.

The compound `CCCCCCCCC=CCCCCCCCC(=O)OCC(COC(=O)CCCCCCCC=CCCCCCCCC)(COC(=O)CCCCCCCC=CCCCCCCCC)COC(=O)CCCCCCCC=CCCCCCCCC` (centres undefined) gave a GHS category of 5.

The compound `NC(N)=N[C@@H](CS)C(=O)O` displayed a GHS category of 5.

The compound `CC12CCC3C(CC=C4C=C(N5CCCC5)CCC43C)C1CCC2=O` (centres undefined) showed a GHS category of 5.

`CSCC[C@H](NC(=O)CCSC(=O)c1ccccc1)C(=O)OC(C)C` had a GHS category of 5.

Compound `CC#CCn1c(Br)nc2c1c(=O)[nH]c(=O)n2C` displayed a GHS category of 4.

`CCN(C(=O)CCCSc1nnnn1C)c1ccccc1` yielded a GHS category of 4.

`CCCCC(CC)COC(=O)c1ccc(C(=O)OCC(CC)CCCC)c(C(=O)OCC(CC)CCCC)c1` (centres undefined): the GHS category amounted to 5.

`OC1c2ccccc2CCc2ccncc21` (centres undefined) had a GHS category of 5.

The compound `CC/C=C\CCOC(=O)C/C=C\CC` yielded a GHS category of 5.

The compound `CC1N=C(c2ccccc2F)c2c(ccc(NC(=O)NCCO)c2Br)N(C)C1=O` (centres undefined) registered a GHS category of 5.

In the case of `CCCC(=O)N(C)C(=O)Oc1cccc2c1OC(C)(C)O2`, the GHS category was 4.

`CCCCCCCCCCCCCCCCBr` registered a GHS category of 5.

For `Nc1nc(N)nc(NC(=O)NC(=O)c2ccc(Cl)cc2)n1`, the GHS category came to 5.

On to `CCCCn1cc2c3c(cccc31)C1=C[C@@H](CO)CN(C)[C@@H]1C2`, for which the GHS category was 4.

With `Cn1c(=O)oc2cc(C(=O)c3ccccc3)ccc21`, the GHS category was determined as 5.

`N#CC(CCc1ccc(Cl)cc1)(Cn1cncn1)c1ccccc1` (centres undefined) came in with a GHS category of 5.

In the case of `CCOC(=O)Cn1c(=O)sc2cccc(Cl)c21`, the GHS category turned out to be 5.

In the case of `CC(O)CCl` (centres undefined), the GHS category is on record as 3.

In turn, `Cc1cccc(C)c1N(CCCC(=O)O)C(=O)c1ccccc1Cl` yielded a GHS category of 5.

In turn, `CC1Oc2cc(C(=O)C=Cc3ccc(Cl)cc3)ccc2N(C)C1=O` (centres undefined) came in with a GHS category of 5.

Regarding `Oc1ccc(OCc2ccccc2)cc1`, the GHS category is listed as 5.

For the compound `CNC[C@@H]1CC[C@@H](N)[C@@H](O[C@H]2[C@H](O)[C@@H](O[C@H]3OC[C@](C)(O)[C@H](NC)[C@H]3O)[C@H](N)C[C@@H]2N)O1`, the GHS category was 5.
